Columns and labels:
[1] = In vitro stability in serum, mice; assay type: in vitro ADME; conditions: 37 °C, 30, 60 and 90 min
Procedure: (§1) To assess the stability of [^18F]3, in vitro radioactivity analyses were conducted following 30-, 60- and 90 min coincubation of the radioligand in the serum and liver microsomes from mice, nonhuman primates (NHPs), and humans (Figure ).
(§2) Serum from mice, NHPs, and humans were warmed to room temperature, 15 MBq of [^18F]3 was added to 0.4 mL of each species’ serum. The mixtures were incubated at 37 °C and 0.1 mL of mixture was transferred into 0.2 mL cold acetonitrile at 30, 60, and 90 min. The samples were vortexed for 15 s and then centrifuged at 10,000g for 5 min. The supernatant was analyzed using analytical HPLC (Agilent 1100 series HPLC system on Phenomenex Luna C-18 column (4.6 × 150 mm), mobile phase 30% CH3CN/0.1% TFA in water, flow:1 mL/min). For microsomes studies, a mixture of microsomes (0.5 mg/mL), [^18F]3 (15 MBq), 0.35 mL of PBS, 0.05 mL of NADPH regenerating system A, and 0.01 mL of NADPH regenerating system B were incubated at 37 °C. The subsequent steps followed the same procedure as described above.

[2] = In vitro stability in liver microsomes, NHPs; assay type: in vitro ADME, nonhuman primates (NHPs); conditions: 90 min
Procedure: as §1, §2

[3] = In vitro stability in liver microsomes, mice; assay type: in vitro ADME; conditions: 90 min
Procedure: as §1, §2

[4] = Ex vivo radiometabolite analysis in brain and plasma; conditions: CD1 mice, 30 min postinjection
Procedure: Next, ex vivo stability in the brain and plasma of CD1 mice was analyzed by radio-HPLC (Figure ). At 30 min postinjection, the parent fraction of [^18F]3 in the brain was determined to be 96%, indicating excellent in vivo metabolic stability. In the blood, 31% of the radioactivity remained intact.
A dose of 15 MBq of [^18F]3 in 0.1 mL saline was intravenously injected into the tail vein of CD1 mice (5–6 weeks). The mice were sacrificed at 30 min postinjection, and the mice brain and blood were quickly collected and homogenized with cold acetonitrile. […] The radioactivity for each fraction was measured using a γ counter (PerkinElmer Wizard). Data analysis was performed by GraphPad Prism 8.0, and the percentage of [^18F]3 relative to total radioactivity (corrected for decay) was calculated as (peak area for [^18F]3 /total peak area) × 100%.

H3R [5] = molecular target: T1, H3R (Mus musculus, UniProt P58406); test: Dynamic PET imaging in CD1 mice, baseline and H3R antagonist blocking; assay type: in vivo; conditions: for V T, cerebellum / V T, cortex / V T, hippocampus / V T, striatum / V T, thalamus / V T, whole brain: Logan analysis, IDIF
T1 construct: dynamic PET imaging studies were conducted in CD1 mice; from tissue; host or cells: brain of living CD1 mice
T1 sequence (P58406 whole entry): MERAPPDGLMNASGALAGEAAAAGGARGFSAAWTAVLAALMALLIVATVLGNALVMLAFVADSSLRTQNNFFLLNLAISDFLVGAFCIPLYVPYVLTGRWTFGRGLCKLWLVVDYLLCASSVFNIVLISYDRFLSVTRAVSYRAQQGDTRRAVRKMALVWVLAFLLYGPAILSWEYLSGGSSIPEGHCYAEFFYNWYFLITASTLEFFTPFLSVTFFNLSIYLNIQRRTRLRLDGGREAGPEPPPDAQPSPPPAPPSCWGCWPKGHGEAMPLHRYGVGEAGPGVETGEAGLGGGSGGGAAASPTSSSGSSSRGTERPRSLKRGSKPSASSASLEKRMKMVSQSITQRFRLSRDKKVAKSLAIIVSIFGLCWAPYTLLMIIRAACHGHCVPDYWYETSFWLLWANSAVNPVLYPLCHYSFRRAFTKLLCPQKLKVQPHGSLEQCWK
Procedure: To elucidate the in vivo brain uptake of [^18F]3 and [^18F]4, dynamic PET imaging studies were conducted in CD1 mice (an outbred strain of immunocompetent mice commonly used for pharmacokinetic and biodistribution studies) for 60 min. The results, which include summed PET images (0–60 min), whole-brain time-activity curves (TACs), and area under the curve (AUC) for both radioligands, are depicted in Figures and . At baseline, [^18F]3 rapidly crossed the BBB following intravenous injection, reaching peak whole-brain uptake with a standardized uptake value (SUV) value of 2.4 at 2.3 min. This was followed by a gradual washout and reached a SUV of 1.87 by 60 min. To evaluate the binding characteristics of [^18F]3, elective H3R antagonists with distinct structural scaffolds, GSK189254, enerisant, and cipralisant, were used as blocking agents. […] Quantification of specific tracer binding was performed using volume of distribution (V T) values, derived from compartmental modeling and an image-derived input function (IDIF). […] While these findings support the utility of [^18F]3 for in vivo studies, we acknowledge the inherent limitations of IDIF, including the lack of metabolite correction and potential inaccuracies in capturing early phase kinetics.
PET imaging was conducted following previously reported methods. CD1 mice (5–6 weeks) were anesthetized with 1.5% (v/v) isoflurane during the scan. A dose of 3.0 MBq of [^18F]3 or [^18F]4 was intravenously injected into the tail vein, and a dynamic scan was acquiring using a PET scanner (MOLECUBES, beta-cube) for 60 min. In the blocking studies, GSK189254 (3 mg/kg) in 0.1 mL of saline containing 5% ethanol and 5% Tween-80 was preinjected for 10 min prior to the injection of PET radioligands. The results were reconstructed and analyzed by PMOD 4.3 software.
Quantification of specific tracer binding was performed using volume of distribution (VT) values, derived from compartmental modeling and an image-derived input […]
significant reduction in H3R-rich brain regions such as the cortex and striatum under blocking conditions with GSK189254, enerisant, and cipralisant, confirming the specificity of [18F]3 binding (Table S1).
Table S1. Estimation of V T values by Logan analysis in mice with [ 18F]3 at baseline, GSK189254-blocking (3 mg/kg), enerisant-blocking (3 mg/kg), and cipralisant-blocking (3 mg/kg) conditions.
Group Baseline GSK189254 Enerisant Cipralisant blocking blocking blocking

H3R [6] = molecular target: T2, H3R (Homo sapiens, UniProt Q9Y5N1); test: H3R competitive radioligand binding assay using [^3H]AZ13582963; conditions: competitive binding vs [^3H]AZ13582963; read-out: H3R K i
T2 construct: Gifford Bioscience (contract laboratory that ran the assay)
T2 sequence (Q9Y5N1 whole entry, species assumed): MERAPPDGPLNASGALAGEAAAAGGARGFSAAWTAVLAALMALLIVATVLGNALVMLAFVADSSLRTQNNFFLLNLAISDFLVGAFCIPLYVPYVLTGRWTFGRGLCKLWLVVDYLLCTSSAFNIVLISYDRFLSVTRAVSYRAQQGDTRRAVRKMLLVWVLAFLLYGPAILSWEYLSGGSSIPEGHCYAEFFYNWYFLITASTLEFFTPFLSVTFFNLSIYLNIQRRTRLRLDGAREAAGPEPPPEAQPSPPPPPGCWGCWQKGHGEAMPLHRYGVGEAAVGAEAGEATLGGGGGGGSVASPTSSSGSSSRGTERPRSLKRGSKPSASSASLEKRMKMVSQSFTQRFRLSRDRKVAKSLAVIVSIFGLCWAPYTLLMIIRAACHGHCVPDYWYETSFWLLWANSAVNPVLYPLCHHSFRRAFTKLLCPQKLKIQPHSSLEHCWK

[7] = mice pretreated with GSK189254 (3 mg/kg)

O=C([C@H]1C[C@@H]1c1ccc([18F])cc1)N1CCN(C2CCCC2)CC1 [[^18F]3]
parent compound remaining intact in serum [1]: over 95% | parent fraction in liver microsomes [2]: 85% | parent fraction in liver microsomes [3]: 78% | parent fraction in the brain [4]: 96% | whole-brain signal reduction based on AUC, GSK189254 blocking (H3R [5]; GSK189254 3 mg/kg, 0–60 min): 32.5% | V T, cerebellum (H3R [5]; GSK189254 blocking 3 mg/kg): 3.85 ± 0.61 | V T, cortex (H3R [5]; GSK189254 blocking 3 mg/kg): 2.17 ± 0.08 | V T, hippocampus (H3R [5]; GSK189254 blocking 3 mg/kg): 3.77 ± 0.47 | V T, striatum (H3R [5]; GSK189254 blocking 3 mg/kg): 2.91 ± 0.05 | V T, thalamus (H3R [5]; GSK189254 blocking 3 mg/kg): 3.90 ± 0.90 | V T, whole brain (H3R [5]; GSK189254 blocking 3 mg/kg): 3.40 ± 0.44 | V T, cerebellum (H3R [5]; baseline): 5.59 ± 0.37 | V T, cortex (H3R [5]; baseline): 4.82 ± 0.09 | V T, hippocampus (H3R [5]; baseline): 5.80 ± 0.05 | V T, striatum (H3R [5]; baseline): 5.64 ± 0.02 | V T, thalamus (H3R [5]; baseline): 6.71 ± 0.05 | V T, whole brain (H3R [5]; baseline): 5.29 ± 0.52 | V T, cerebellum (H3R [5]; cipralisant blocking 3 mg/kg): 2.94 ± 0.33 | V T, cortex (H3R [5]; cipralisant blocking 3 mg/kg): 2.38 ± 0.34 | V T, hippocampus (H3R [5]; cipralisant blocking 3 mg/kg): 2.61 ± 0.32 | V T, striatum (H3R [5]; cipralisant blocking 3 mg/kg): 2.67 ± 0.33 | V T, thalamus (H3R [5]; cipralisant blocking 3 mg/kg): 2.78 ± 0.40 | V T, whole brain (H3R [5]; cipralisant blocking 3 mg/kg): 2.61 ± 0.30 | V T, cerebellum (H3R [5]; enerisant blocking 3 mg/kg): 3.73 ± 0.16 | V T, cortex (H3R [5]; enerisant blocking 3 mg/kg): 3.18 ± 0.12 | V T, hippocampus (H3R [5]; enerisant blocking 3 mg/kg): 3.84 ± 0.19 | V T, striatum (H3R [5]; enerisant blocking 3 mg/kg): 3.48 ± 0.27 | V T, thalamus (H3R [5]; enerisant blocking 3 mg/kg): 4.11 ± 0.26 | V T, whole brain (H3R [5]; enerisant blocking 3 mg/kg): 3.58 ± 0.18 | time of peak whole-brain uptake (H3R [5]; baseline, CD1 mice): 2.3 min | whole-brain uptake at 60 min (H3R [5]; baseline, CD1 mice): 1.87 SUV | peak whole-brain uptake (H3R [5]; baseline, intravenous injection, CD1 mice): 2.4 SUV | whole-brain AUC reduction, cipralisant blocking (H3R [5]; cipralisant 3 mg/kg, 0–60 min): 38.4% | whole-brain AUC reduction, enerisant blocking (H3R [5]; enerisant 3 mg/kg, 0–60 min): 35.6% | brain radioactivity at 60 min (H3R [5]; [7]): 1.27 SUV | peak brain radioactivity (H3R [5]; [7]): 1.98 SUV | time of peak brain radioactivity (H3R [5]; [7]): 1.9 min | Ki (H3R [6]): 2.87 nM

Reference: PMC12362585, “Development and Preclinical Characterization of [^18F]H3-2406 and [^18F]H3-2407 for Positron Emission Tomography Imaging of the Histamine Subtype‑3 Receptor” (Journal of Medicinal Chemistry, 2025)
